Like-named read-outs stand apart in the source and are kept apart here.
How the values were obtained:
[1] = gamma sterilisation of S-nitrosoglutathione at unconstrained temperature (Example 1), HPLC purity and impurities vs non-irradiated control; type: physicochemical
Method: S-nitrosoglutathione granule samples from a single manufacturing batch, contained in glass vials (up to 250 mg/vial), were stored before sterilisation surrounded by dry ice (solid CO2) at about −80° C. The matching controls were not irradiated but underwent similar conditions of storage and thermal management before, during and after irradiation, as compared with the S-nitrosoglutathione vials that were irradiated. The control purity levels of the S-nitrosoglutathione, and the level of specific impurities glutathione (GSH) and oxidised glutathione (GSSG) content and total impurities content, were analysed. Vials were exposed to either electron beam (e-beam) irradiations or to gamma irradiations. The vials were removed from the dry ice container and sterilised via two radiation dose conditions (15 kGy and 35 kGy) described below under higher temperature conditions (with surrounding air temperature in the range about 18 to 24° C. and with the temperature of the vials free to fluctuate to higher temperature). After irradiation, the vials were immediately surrounded by dry ice at about −80° C. and analysed for post-sterilisation determination of any changes in purity against the control. The gamma radiation was performed using a moving carrier system set up for delivering a 15 kGy dose and a 35 kGy dose. The 15 kGy dose radiation lasted about 8-10 hours and the temperature reached up to 40° C. The 35 kGy dose radiation lasted about 18-24 hours, with a temperature reaching up to 60° C. The radiation doses received were measured by conventional dosimeters.

[2] = e-beam sterilisation of S-nitrosoglutathione at constrained temperatures (Example 2), HPLC purity and impurities vs non-irradiated control; type: physicochemical; conditions: few sec.
Method: The experimental protocol for this Example aims to test in a controlled manner the effects on purity of a sterilizing irradiation temperature (a) at about −80° C. and (b) under positive cooling (with surrounding air temperature in the range about 18 to 24° C. and with the temperature of the vials controlled). The same radiation doses as described for Example 1 were applied. For this Example, S-nitrosoglutathione granule samples, from the same single manufacturing batch as in Example 1, contained in amber glass vials (100 mg/vial) were stored before sterilisation at about −80° C. The irradiation process at −80° C. was achieved by the presence of dry ice, which was placed to ensure low temperature of the vials but without influencing the radiation dose delivery characteristics. The matching controls were not irradiated but underwent similar conditions of thermal management before, during and after irradiation, as compared with the S-nitrosoglutathione vials that were irradiated. The e-beam radiation was performed using a moving carrier system. The S-nitrosoglutathione vials were stored at −80° C. freezer and transferred to a dry ice container before irradiation. Before the start of irradiation the S-nitrosoglutathione vials destined for irradiation at ambient temperature (and control vials) were removed from the −80° C. freezer and transferred to a location where the surrounding air temperature is controlled at 18° C. Individual low-temperature containers were used for the vials designated for each target dose and condition of thermal management. A secondary packaging box was placed in the lateral centre at the bottom of the first low-temperature container, with the vials oriented upright. The position of each vial in the configuration was documented. The vials were always irradiated from the same side. […] The arrows marked “e” show the direction of the radiation. For the S-nitrosoglutathione vials requiring cold chain management, dry ice was placed at each lateral short side of the container to ensure a cold chain was maintained during the irradiation process. Each container was placed in an irradiation container. Both the 15 kGy e-beam and 35 kGy radiation doses lasted a few seconds. Following completion of the desired irradiation process, the irradiated S-nitrosoglutathione containing vials and correspondent controls were stored at −80° C. in a freezer for subsequent analysis.

[3] = e-beam sterilisation of S-nitrosoglutathione at unconstrained temperature (Example 1), HPLC purity and impurities vs non-irradiated control; type: physicochemical; conditions: ~27.5 °C
Method: S-nitrosoglutathione granule samples from a single manufacturing batch, contained in glass vials (up to 250 mg/vial), were stored before sterilisation surrounded by dry ice (solid CO2) at about −80° C. The matching controls were not irradiated but underwent similar conditions of storage and thermal management before, during and after irradiation, as compared with the S-nitrosoglutathione vials that were irradiated. The control purity levels of the S-nitrosoglutathione, and the level of specific impurities glutathione (GSH) and oxidised glutathione (GSSG) content and total impurities content, were analysed. Vials were exposed to either electron beam (e-beam) irradiations or to gamma irradiations. The vials were removed from the dry ice container and sterilised via two radiation dose conditions (15 kGy and 35 kGy) described below under higher temperature conditions (with surrounding air temperature in the range about 18 to 24° C. and with the temperature of the vials free to fluctuate to higher temperature). After irradiation, the vials were immediately surrounded by dry ice at about −80° C. and analysed for post-sterilisation determination of any changes in purity against the control. The e-beam radiation was performed using a moving carrier system set up for delivering a 15 kGy dose and a 35 kGy dose. The 15 kGy radiation dose lasted about 10-15 minutes and the temperature reached approximately equal to 27.5° C. (designated 27.5° C. in the Tables and Figs.). The 35 kGy radiation dose lasted about 30 minutes and the temperature reached approximately equal to 27.5° C. (designated ˜27.5° C. in the Tables and the Figs.). The radiation doses were measured by conventional dosimeters.

[4] = cited from earlier work
[5] = gamma sterilisation of S-nitrosoglutathione at constrained temperatures (Example 2), HPLC purity and impurities vs non-irradiated control; type: physicochemical
Method: The experimental protocol for this Example aims to test in a controlled manner the effects on purity of a sterilizing irradiation temperature (a) at about −80° C. and (b) under positive cooling (with surrounding air temperature in the range about 18 to 24° C. and with the temperature of the vials controlled). The same radiation doses as described for Example 1 were applied. For this Example, S-nitrosoglutathione granule samples, from the same single manufacturing batch as in Example 1, contained in amber glass vials (100 mg/vial) were stored before sterilisation at about −80° C. The irradiation process at −80° C. was achieved by the presence of dry ice, which was placed to ensure low temperature of the vials but without influencing the radiation dose delivery characteristics. The matching controls were not irradiated but underwent similar conditions of thermal management before, during and after irradiation, as compared with the S-nitrosoglutathione vials that were irradiated. The gamma radiation was performed using gamma radiation emitted from cobalt-60 radioactive sources. The S-nitrosoglutathione vials were stored at −80° C. in a freezer and transferred to a dry ice container before irradiation. Before the start of irradiation, the S-nitrosoglutathione vials destined for irradiation at ambient temperature (and control vials) were removed from the −80° C. freezer and transferred to a location where the surrounding temperature was controlled at 18° C. Individual low-temperature containers were used for the samples designated for each target dose and condition of thermal management, as described above in relation to the e-beam arm of this Example. The secondary packaging was placed in the lateral centre at the bottom of first low-temperature container, with the vials oriented upright. […] The arrows marked “γ” show the direction of the radiation. For the S-nitrosoglutathione product requiring cold chain management, dry ice was placed at each lateral short side of the low-temperature container to ensure a cold chain was maintained during the irradiation process. Each low-temperature container was placed in the lateral centre of an irradiation container. The 15 kGy radiation dose lasted 2 hours and 8 minutes whereas the 35 kGy dose lasted about 5 hours and 8 minutes. When necessary, the dry ice was replenished before execution of the second irradiation. Following completion of the irradiation process, the irradiated S-nitrosoglutathione products were placed in the designated −80° C. freezer. The control samples were moved from the 18° C. controlled location to the designated −80° C. freezer upon completion of the second irradiation. The time of transfer was recorded.

[6] = liquid formulation, after at least 8-12 hours at 4 °C to 25 °C (Looker et al., 2008); cited from earlier work

N[C@@H](CCC(=O)N[C@@H](CSN=O)C(=O)NCC(=O)O)C(=O)O [GSNO, S-nitrosoglutathione]
GSH impurity (% unit change) ([1]; 15 kGy, 8-10 hours, <40 °C): 0.34%
GSNO purity (decrease % of control) ([1]; 15 kGy, 8-10 hours, <40 °C): −4.47%
GSSH impurity (% unit change) ([1]; 15 kGy, 8-10 hours, <40 °C): 1.25%
Total impurities (% unit changes) ([1]; 15 kGy, 8-10 hours, <40 °C): 4.25%
GSH impurity (% unit change) ([1]; 35 kGy, 18-24 hours, <60 °C): 0.15%
GSNO purity (decrease % of control) ([1]; 35 kGy, 18-24 hours, <60 °C): −9.45%
GSSH impurity (% unit change) ([1]; 35 kGy, 18-24 hours, <60 °C): 6.63%
Total impurities (% unit changes) ([1]; 35 kGy, 18-24 hours, <60 °C): 9.12%
GSH impurity (% unit change) ([2]; 15 kGy, <27.5 °C): 0.13%
GSNO purity (decrease % of control) ([2]; 15 kGy, <27.5 °C): −0.28%
GSSH impurity (% unit change) ([2]; 15 kGy, <27.5 °C): 0.13%
Total impurities (% unit changes) ([2]; 15 kGy, <27.5 °C): 0.27%
GSH impurity (% unit change) ([2]; 15 kGy, −80 °C): 0.10%
GSNO purity (decrease % of control) ([2]; 15 kGy, −80 °C): −0.16%
GSSH impurity (% unit change) ([2]; 15 kGy, −80 °C): 0.10%
Total impurities (% unit changes) ([2]; 15 kGy, −80 °C): 0.16%
GSH impurity (% unit change) ([2]; 35 kGy, <27.5 °C): 0.29%
GSNO purity (decrease % of control) ([2]; 35 kGy, <27.5 °C): −1.12%
GSSH impurity (% unit change) ([2]; 35 kGy, <27.5 °C): 0.23%
Total impurities (% unit changes) ([2]; 35 kGy, <27.5 °C): 1.08%
GSH impurity (% unit change) ([2]; 35 kGy, −80 °C): 0.23%
GSNO purity (decrease % of control) ([2]; 35 kGy, −80 °C): −0.55%
GSSH impurity (% unit change) ([2]; 35 kGy, −80 °C): 0.07%
Total impurities (% unit changes) ([2]; 35 kGy, −80 °C): 0.54%
GSH impurity (% unit change) ([3]; 15 kGy, 10-15 minutes): 0.17%
GSNO purity (decrease % of control) ([3]; 15 kGy, 10-15 minutes): −0.55%
GSSH impurity (% unit change) ([3]; 15 kGy, 10-15 minutes): 0.11%
Total impurities (% unit changes) ([3]; 15 kGy, 10-15 minutes): 0.53%
GSH impurity (% unit change) ([3]; 35 kGy, ~30 minutes): 0.36%
GSNO purity (decrease % of control) ([3]; 35 kGy, ~30 minutes): −1.37%
GSSH impurity (% unit change) ([3]; 35 kGy, ~30 minutes): 0.32%
Total impurities (% unit changes) ([3]; 35 kGy, ~30 minutes): 1.26%
time reported to be stable on storage ([4]; solid prepared by a specific method, further controlled air, radiation and temperature conditions (Looker et al., 2008; WO 2008/153762)): 9 months
time reported to be stable on storage ([4]; solid, inert atmosphere (argon and nitrogen), −20 °C, in the dark (Parent et al., 2013)): 6 months
GSH impurity (% unit change) ([5]; 15 kGy, ~2 h, <27.5 °C): 0.17%
GSNO purity (decrease % of control) ([5]; 15 kGy, ~2 h, <27.5 °C): −0.67%
GSSH impurity (% unit change) ([5]; 15 kGy, ~2 h, <27.5 °C): 0.14%
Total impurities (% unit changes) ([5]; 15 kGy, ~2 h, <27.5 °C): 0.63%
GSH impurity (% unit change) ([5]; 15 kGy, ~2 h, −80 °C): 0.11%
GSNO purity (decrease % of control) ([5]; 15 kGy, ~2 h, −80 °C): −0.26%
GSSH impurity (% unit change) ([5]; 15 kGy, ~2 h, −80 °C): 0.11%
Total impurities (% unit changes) ([5]; 15 kGy, ~2 h, −80 °C): 0.25%
GSH impurity (% unit change) ([5]; 35 kGy, ~5 h, <32.5 °C): 0.43%
GSNO purity (decrease % of control) ([5]; 35 kGy, ~5 h, <32.5 °C): −2.2%
GSSH impurity (% unit change) ([5]; 35 kGy, ~5 h, <32.5 °C): 0.36%
Total impurities (% unit changes) ([5]; 35 kGy, ~5 h, <32.5 °C): 2.11%
GSH impurity (% unit change) ([5]; 35 kGy, ~5 h, −80 °C): 0.29%
GSNO purity (decrease % of control) ([5]; 35 kGy, ~5 h, −80 °C): −1.01%
GSSH impurity (% unit change) ([5]; 35 kGy, ~5 h, −80 °C): 0.36%
Total impurities (% unit changes) ([5]; 35 kGy, ~5 h, −80 °C): 0.96%
initial S-nitrosoglutathione present after storage [6]: about 85%

— patent US20190336602A1, “STERILISATION OF S-NITROSOTHIOLS” (Salupont Consulting Ltd., priority 2015, published 2019)
